Test results from paper PMC6630837 (Pharmaceuticals, 2019).
Entries after “also recorded” stand apart in the source; their conditions may differ. Where two headings read alike, the source gives them in different places.

Experiments:
[1] = test system: SH-SY5Y human neuroblastoma cells; test: Neuroprotection against H2O2-induced toxicity, MTT cell viability assay; assay type: cell-based; details: 50 μM compound, 100 μM H2O2, 24 h, 37 °C
From the text: Neuroprotective activity assays against H2O2-induced toxicity. On the basis of previously described protocols, the flavones and analogues herein synthesized were screened for their neuroprotective effects against H2O2-induced oxidative stress and neuronal damage in SH-SY5Y human neuroblastoma cells by means of a thiazolyl blue tetrazolium bromide (MTT) reduction-based cell viability assay.
Neuroprotective assays in human neuroblastoma (SH-SY5Y) cells. […] Differences were considered significant when P < 0.05.

[2] = test system: SH-SY5Y neuroblastoma cells; test: Cytotoxic activity of compounds alone, MTT cell viability assay; details: 24 h
Method: Neuroprotective assays in human neuroblastoma (SH-SY5Y) cells. SH-SY5Y cells were grown in Dulbecco’s Modified Eagle Medium (DMEM, Gibco, Life Technologies) supplemented with 10% fetal bovine serum (FBS, Biochrom GmbH) and 1% Penicillin-Streptomycin (Gibco, Life Technologies) in a humidified incubator at 37 °C, 5% CO2. For the neuroprotective activity assay, undifferentiated SGSY-5Y cells were plated onto 96-well flat-bottomed microtiter plates at a density of 1 × 10^4 cells/well in DMEM supplemented with 2% FBS and preincubated for 24 h at 37 °C, 5% CO2. Compounds (stored as 10 mM solutions in DMSO at −20 °C) were then added to achieve a final concentration of 50 μM and, after 30 min, cells were incubated in the presence or absence of 20 μM Aβ protein fragment 1-42 (Sigma-Aldrich, dissolved in DMSO and stored in 2 mM aliquots at −20 °C) or 100 μM of H2O2 (Sigma-Aldrich, dissolved to 10 mM in 0.9% NaCl aqueous solution immediately prior to the assay) overnight at 37 °C, 5% CO2. […] The following morning, 20 μL of a 5 mg/mL solution of 3-(4,5-dimethylthiazol-2-yl)-2,5-diphenyltetrazolium bromide (MTT, Sigma-Aldrich) in PBS (Gibco, Life Technologies) was added to each well and the plates were further incubated for 4 h at 37 °C, followed by the addition of DMSO (200 μL) to each well in order to dissolve the resulting formazan crystals. After 2 h incubating at 37 °C, the optical density (OD) at 540 nm (with a 620 nm reference filter) was measured in an Amersham Biosciences Biotrak II Plate Reader. The percentage of MTT reduction was determined according to Equation (1). […] Differences between experimental conditions were compared for statistical significance by one-way ANOVA followed by a Tukey’s post-test, an analysis carried out using GraphPad Prism Software (LA Jolla, CA, USA). Differences were considered significant when P < 0.05. In order to exclude direct MTT reduction, compounds were also tested in (a) the absence of cells and (b) in the absence of both cells and culture medium, using the same experimental conditions described above. (2) MTT Reduction (% of Control)=[ODsample−ODmedium/ODcell control−ODmedium] × 100 […]
Tabl e S2. Cytotoxic activity of each compound assessed in SH-SY5Y neuroblastoma cells via an MTT cell viability assay.a Comp ound Nr. MTT reduction (% control) p-va l u e vs . untreated cell control (unpai red t-t es t) […]
a Cells were incubated for 24 h at 37 °C, in the presence (50 μM) or absence of each compound.

[3] = LogD7.4 determination (octan-1-ol/phosphate buffer, LC-MS); assay type: physicochemical
Method: LogD7.4 determination. The in-silico prediction tool ALOGPS [4] was used to estimate the octanol-water partition coefficients (log P) of the compounds. […] For each category, two different ratios (volume of octan-1-ol to volume of buffer) were defined as experimental parameters (Table 2).
Equal amounts of phosphate buffer (0.1 M, pH 7.4) and octan-1-ol were mixed and shaken vigorously for 5 min to saturate the phases. The mixture was left until separation of the two phases, and the buffer was retrieved. Stock solutions of the test compounds were diluted with buffer to a concentration of 1 μM. For each compound, three determinations per octan-1-ol:buffer ratio were performed in different wells of a 96-well plate. The respective volumes of buffer-containing analyte (1 μM) were pipetted to the wells and covered by saturated octan-1-ol according to the chosen volume ratio. […] The aqueous phase was transferred to a 96-well plate for analysis by liquid chromatography-mass spectrometry (LCMS, see below).
Results are presented as the mean ± SD of three independent experiments.
LC-MS measurements. […] The system was controlled with the Agilent MassHunter Workstation Data Acquisition software (version B.01.04). The column used was an AtlantisR T3 C18 column (2.1 × 50 mm) with a 3 μm-particle size (Waters Corp., Milford, MA, USA). The mobile phase consisted of eluent A: 10 mM ammonium acetate, pH 5.0 in 95:5, H2O:MeCN; and eluent B: MeCN containing 0.1% formic acid. The flow rate was maintained at 0.6 mL/min. […] MS parameters such as fragmentor voltage, collision energy, and polarity were optimized individually for each drug, and the molecular ion was followed for each compound in the multiple reaction monitoring mode. The concentrations of the analytes were quantified by the Agilent Mass Hunter Quantitative Analysis software (version B.01.04).

[4] = target: acetylcholinesterase (AChE) (Electrophorus electricus, UniProt O42275); test: Acetylcholinesterase inhibition, Ellman's colorimetric assay; assay type: biochemical; details: 100 µM compound; for inhibition at 100 µM: read-out: AChE inhibitory efficacy (percentage of inhibition)
Sequence of acetylcholinesterase (AChE) (O42275 24-633): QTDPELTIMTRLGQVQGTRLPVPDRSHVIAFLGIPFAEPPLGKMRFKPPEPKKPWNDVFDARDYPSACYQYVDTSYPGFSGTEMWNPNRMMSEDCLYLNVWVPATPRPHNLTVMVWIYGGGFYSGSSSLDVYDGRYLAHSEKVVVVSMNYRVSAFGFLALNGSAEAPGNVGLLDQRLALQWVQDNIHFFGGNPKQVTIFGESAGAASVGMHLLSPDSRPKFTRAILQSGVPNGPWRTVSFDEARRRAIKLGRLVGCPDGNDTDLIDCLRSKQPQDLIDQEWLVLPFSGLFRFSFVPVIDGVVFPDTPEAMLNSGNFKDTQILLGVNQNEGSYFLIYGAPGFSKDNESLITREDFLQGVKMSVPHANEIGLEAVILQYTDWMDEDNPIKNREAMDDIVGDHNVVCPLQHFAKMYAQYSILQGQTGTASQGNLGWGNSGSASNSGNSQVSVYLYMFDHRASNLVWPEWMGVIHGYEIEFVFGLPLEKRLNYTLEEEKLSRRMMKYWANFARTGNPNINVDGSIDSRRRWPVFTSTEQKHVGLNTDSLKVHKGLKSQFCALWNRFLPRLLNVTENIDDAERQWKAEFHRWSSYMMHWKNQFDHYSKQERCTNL
Method: For cholinesterase inhibition tests (acetylcholinesterase (AChE, electrophorus
was kept within 1.25% cuvette concentration.
AChE and at 18.2 µM concentration for BuChE. […]

[5] = target: T1, butyrylcholinesterase (BuChE) (Equus caballus, UniProt P81908); test: biochemical; details: for inhibition at 100 µM: read-out: BuChE inhibitory efficacy (percentage of inhibition)
T1 construct: (BuChE, equine serum); from tissue; host or cells: equine serum
T1 sequence (P81908 whole entry): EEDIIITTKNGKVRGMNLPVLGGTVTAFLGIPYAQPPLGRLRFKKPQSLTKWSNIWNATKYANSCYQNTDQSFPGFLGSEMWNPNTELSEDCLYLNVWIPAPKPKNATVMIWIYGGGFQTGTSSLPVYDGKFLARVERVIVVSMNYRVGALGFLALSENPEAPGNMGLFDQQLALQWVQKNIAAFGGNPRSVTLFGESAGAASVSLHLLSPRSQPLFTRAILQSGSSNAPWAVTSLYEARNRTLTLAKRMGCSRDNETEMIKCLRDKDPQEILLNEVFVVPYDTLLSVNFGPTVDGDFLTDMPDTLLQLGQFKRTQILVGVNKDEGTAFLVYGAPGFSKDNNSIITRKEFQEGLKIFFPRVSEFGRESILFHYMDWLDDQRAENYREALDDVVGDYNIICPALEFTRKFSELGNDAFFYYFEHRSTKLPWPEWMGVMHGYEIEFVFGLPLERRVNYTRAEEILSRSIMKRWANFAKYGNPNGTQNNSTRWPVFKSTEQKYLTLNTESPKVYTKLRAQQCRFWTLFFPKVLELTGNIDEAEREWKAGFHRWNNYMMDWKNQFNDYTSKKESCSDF
Method: Experimental procedures for cholinesterase inhibition a s sa y s. For cholinesterase inhibition tests (acetylcholinesterase (AChE, electrophorus
el ec t r ic u s) a n d b ut yr ylcholinesterase (BuChE, equine serum), the Ellman’s cholorimetric assay1 was followed, with minor modifications. DMSO
was kept within 1.25% cuvette concentration. The chromogenic agent DTNB [5,5’-dithiobis(2-nitrobenzoic acid)] was fixed at 0.975 mM
con centration; 0. 1 M phosphate buffer (pH 8. 0) was employed, T = 25 °C, and the reaction was monitored for 125 s. […]
of inhibition, the substrate concentration (acetylthiocholine iodide for AChE; S- butyr ylthiocholine iodide for BuChE) was fixed at 29 µM for
AChE and at 18.2 µM concentration for BuChE.
Lineweaver-Burk plot (or double reciprocal plot, 1/V vs . 1/ [S ]) wa s u se d for estimating both, the mode of inhibition and the inhibition constants […]
Competitive inhibition (inhibitor only bonds the free enzyme):
KKiiii = [II ]KKMM iiaaaa
M i xe d inhibition (inhibitor binds both, the free and the complexed enzyme) :
Uncompetitive (the inhibitors only binds the complexed enzyme):
N on -competitive (inhibitor binds both the free enzyme and the complexed enzyme with equal affinity) :
Table S3. […]
of the synthesized flavone analogues at 100 µ M.
C omp ou n d N o. AChE B uChE

[6] = 50 μM compound alone, 37 °C, 0.5% DMSO, SH-SY5Y
[7] = octan-1-ol/phosphate buffer pH 7.4, 25 °C
[8] = octan-1-ol/phosphate buffer, pH 7.4, octan-1-ol/phosphate buffer pH 7.4, 25 °C, read-out: Log D7.4 (partition coefficient at pH 7.4)

Compound: 2-(Furan-2-yl)-8-(β-D-glucopyranosyl)-5,7-dihydroxy-4H-chromen-4-one [Compound 21]
- Neuroprotective effect against H2O2-induced toxicity (MTT cell viability) [1]: able to rescue cells from oxidative damage caused by H2O2; also recorded: able to produce a significant improvement in cell viability
- MTT reduction (% control) [2, 6]: 131.5 ± 11.0%
- Log D7.4 (partition coefficient at pH 7.4) [3, 7]: −0.2 ± 0.1

Compound: 8-(β-D-Glucopyranosyl)-5,7-dihydroxy-4′-(pyrrolidin-1-yl)flavone [Compound 20]
- MTT reduction (% control) [2, 6]: 219.9 ± 16.9%
- Log D7.4 (partition coefficient at pH 7.4) [3, 7]: 1.8 ± 0.2

Compound: O=c1cc(-c2ccccc2)oc2cc(O)cc(O)c12 [Compound 1, chrysin, reference compound]
- Neuroprotective effect against H2O2-induced toxicity (MTT cell viability) [1]: absence of significant effects
- MTT reduction (% control) [2, 6]: 96.2 ± 26.9%
- logD ([3]; octan-1-ol/phosphate buffer pH 7.4, 25 °C, read-out: Log D7.4 (partition coefficient at pH 7.4)): 3.6 ± 0.4
- inhibition at 100 µM [4]: 18%
- Ki [5]: 32 ± 4 µM
- Butyrylcholinesterase inhibition, ranking in words ([5]; 100 µM compound): the most active butyrylcholinesterase inhibitor
- Mode of inhibition ([5]; BuChE, Lineweaver-Burk plot): Non-* co mp etit iv e in hi bit io n
- inhibition at 100 µM [5]: 64%

Compound: O=c1cc(C2CC2)oc2cc(O)cc(O)c12 [Compound 4, 2-Cyclopropyl-5,7-dihydroxy-4H-chromen-4-one]
- Neuroprotective effect against H2O2-induced toxicity (MTT cell viability) [1]: the increase was not significant
- MTT reduction (% control) [2, 6]: 140.7 ± 12.0%
- logD [3, 8]: 2.9 ± 0.1
- inhibition at 100 µM [4]: 24%
- inhibition at 100 µM [5]: 30%

Compound: O=c1cc(C2CCC2)oc2cc(O)cc(O)c12 [Compound 5, 2-Cyclobutyl-5,7-dihydroxy-4H-chromen-4-one]
- Neuroprotective effect against H2O2-induced toxicity (MTT cell viability) [1]: the increase was not significant
- MTT reduction (% control) [2, 6]: 184.6 ± 30.2%
- logD [3, 8]: > 2.5

Compound: CCC(C)c1cc(=O)c2c(O)cc(O)cc2o1 (stereo not shown) [Compound 6, 5,7-Dihydroxy-2-(1-methylpropyl)-4H-chromen-4-one]
- Neuroprotective effect against H2O2-induced toxicity (MTT cell viability) [1]: the increase was not significant
- MTT reduction (% control) [2, 6]: 109.9 ± 18.7%
- logD [3, 8]: > 2.5
- AChE inhibitory efficacy (percentage of inhibition) [4]: n.i .
- Butyrylcholinesterase inhibition, ranking in words ([5]; 100 µM compound): the most promising one
- Mode of inhibition ([5]; BuChE, Lineweaver-Burk plot): Mixed inhibition
- Ki ([5]; BuChE, Lineweaver-Burk plot, read-out: Kia (inhibition constant)): 44 ± 17 µM
- Ki ([5]; BuChE, Lineweaver-Burk plot, read-out: Kib (inhibition constant)): 36 ± 8 µM
- inhibition at 100 µM [5]: 46%

Compound: O=c1cc(-c2ccc(N3CCCC3)cc2)oc2cc(O)cc(O)c12 [Compound 9, 5,7-Dihydroxy-4′-(pyrrolidin-1-yl)flavone]
- Neuroprotective effect against H2O2-induced toxicity (MTT cell viability) [1]: able to produce statistically significant differences when compared to H2O2 controls
- MTT reduction (% control) [2, 6]: 163.6% ± 72.6
- inhibition at 100 µM [4]: 27%
- inhibition at 100 µM [5]: 32%

Compound: CN(C)c1ccc(-c2cc(=O)c3c(O)cc(O)cc3o2)cc1 [Compound 10, 4′-Dimethylamino-5,7-dihydroxyflavone]
- Neuroprotective effect against H2O2-induced toxicity (MTT cell viability) [1]: not significantly active
- MTT reduction (% control) [2, 6]: 191.5 ± 22.9%
- logD [3, 8]: 3.4 ± 0.2

Compound: O=c1cc(-c2ccco2)oc2cc(O)cc(O)c12 [Compound 11, 2-(Furan-2-yl)-5,7-dihydroxy-4H-chromen-4-one]
- Neuroprotective effect against H2O2-induced toxicity (MTT cell viability) [1]: contrarily
- MTT reduction (% control) [2, 6]: 129.7 ± 9.06%
- logD [3, 8]: > 2.5

Compound: O=c1cc(-c2ccncc2)oc2cc(O)cc(O)c12 [Compound 12, 5,7-Dihydroxy-2-(pyridin-4-yl)-4H-chromen-4-one]
- Neuroprotective effect against H2O2-induced toxicity (MTT cell viability) [1]: contrarily
- MTT reduction (% control) [2, 6]: 233.7 ± 15.7%

Compound: O=c1ccoc2cc(O)cc(O)c12 [Compound 13, 5,7-dihydroxychromen-4-one, reference compound]
- Neuroprotective effect against H2O2-induced toxicity (MTT cell viability) [1]: no significant differences
- MTT reduction (% control) [2, 6]: 71.2 ± 48.1%
- logD [3, 8]: 2.4 ± 0.1

Compound: O=c1cc(-c2ccccc2)oc2c([C@@H]3O[C@H](CO)[C@@H](O)[C@H](O)[C@H]3O)c(O)cc(O)c12 [Compound 16, 8-(β-D-Glucopyranosyl)-5,7-dihydroxyflavone]
- Neuroprotective effect against H2O2-induced toxicity (MTT cell viability) [1]: absence of significant effects
- MTT reduction (% control) [2, 6]: 142.0 ± 38.5%
- logD [3, 8]: 0.8 ± 0.3
- inhibition at 100 µM [4]: 20%
- BuChE inhibitory efficacy (percentage of inhibition) ([5]; 100 µM compound): n.i .

Compound: O=c1cc(-c2ccc(O)cc2)oc2c([C@@H]3O[C@H](CO)[C@@H](O)[C@H](O)[C@H]3O)c(O)cc(O)c12 [Compound 17, 8-(β-D-Glucopyranosyl)-5,7,4′-trihydroxyflavone]
- Neuroprotective effect against H2O2-induced toxicity (MTT cell viability) [1]: able to rescue cells from oxidative damage caused by H2O2; also recorded: able to fully recover cell viability
- MTT reduction (% control) ([2]; human, 50 μM): 85.0 ± 38.5%
- logD ([3]; pH 7.4, Log D7.4 (partition coefficient at pH 7.4)): 0.1 ± 0.1

Compound: O=c1ccoc2c([C@@H]3O[C@H](CO)[C@@H](O)[C@H](O)[C@H]3O)c(O)cc(O)c12 [Compound 22, 8-(β-D-Glucopyranosyl)-5,7-dihydroxy-4H-chromen-4-one]
- Neuroprotective effect against H2O2-induced toxicity (MTT cell viability) [1]: no significant differences
- MTT reduction (% control) [2, 6]: 149.2 ± 21.6%
- logD [3, 8]: -2 ± 0.2
- AChE inhibitory efficacy (percentage of inhibition) [4]: n.i .
- inhibition at 100 µM [5]: 19%
